Our source for the TGI values is PubChem BioAssay (NCI).

Assay in all cases: NCI anticancer screen, dose series, 48 h
Experiment [1] has as its system A549 NSCLC.
Experiment [2] deals with BT-549 breast.
The test system of experiment [3] is MDA-N.
Experiment [4] relates to OVCAR-3 ovarian.
Experiment [5] deals with PC-3 prostate.
The subject of experiment [6] is SF-268 CNS.
For experiment [7], the system named is SNB-75 CNS.
In experiment [8] the test system is SR leukemia.
Experiment [9] concerns TK-10 renal.
Experiment [10] deals with DLD-1 colon.
Experiment [11] has as its system LXFL 529 NSCLC.
Experiment [12] has as its system M19-MEL melanoma.
Experiment [13] has as its system DMS 114 small cell lung.
Experiment [14] deals with KM20L2 colon.
Experiment [15] concerns SNB-78 CNS.
The subject of experiment [16] is DMS 273 small cell lung.

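Results reflect a 48-hour exposure of cells in 96-well plates to compound at five concentrations. TGI denotes the concentration required for complete inhibition of growth.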 Where only a bound is given, the exact number is not on record here.

Regarding `C[C@H](CCc1nc(C#N)c(N)o1)[C@H]1CC[C@H]2[C@@H]3[C@@H](O)CC4C[C@@H](O)CC[C@]4(C)[C@H]3C[C@@H](O)[C@]12C` (stereo not given in full), the TGI in [1] is more than 100 µM; in [2], 25.3 µM; in experiment [3], 77.8 µM; in [4], more than 56.9 µM; in [5], 49.1 µM; in [6], more than 91.5 µM. Also, the TGI in experiment [7] is 54 µM; in experiment [8] it was more than 61.8 µM; in [9], more than 68.1 µM.
Consider `C=CCCCC1(C)CCCCNC1=O` (stereo not given), for which the TGI in experiment [1], in [2], in experiment [3], in experiment [4], in experiment [5] and in experiment [6] was more than 10 µM throughout. The TGI in experiment [7], in experiment [8] and in experiment [9] was more than 10 µM throughout.
Turning to `CC[C@H](CCCCC1CC[C@@H]2CC(=O)C[C@H]12)OC` (stereo not given in full), the TGI in experiment [1], in [2], in [3], in [4], in experiment [5] and in [6] was more than 100 µM in each case. For the same compound, the TGI in experiment [7], in [8] and in [9] was more than 100 µM in each case.
Regarding `Cc1ccc(N2C(=O)/C(=c3\s/c(=C(/N)O)c(=N)n3-c3ccccc3)SC2=S)cc1`, the TGI in experiment [1], in [10], in experiment [11], in [12], in experiment [4] and in experiment [6] was more than 100 µM each time. Besides, the TGI in [7] is 28 µM; in [9] it was more than 100 µM.
Turning to `Cc1cccc(C)c1NC(=S)/N=C/C1=C(O)c2ccccc2C1=O`, the TGI in experiment [1] was more than 100 µM; in experiment [2], more than 28.8 µM; in [3], more than 95.5 µM; in experiment [4], more than 100 µM; in [5] it was more than 100 µM; in [6], more than 100 µM. Moreover, the TGI in experiment [7] is 51.4 µM; in [8], 8.19 µM; in experiment [9], more than 81.2 µM.
With `CC1=NN(C(=O)c2ccc(Cl)cc2)C(=O)/C1=C/c1cccc(O)c1`, the TGI in [1], in experiment [10], in experiment [13], in experiment [14], in [11] and in [12] was more than 100 µM throughout. For the same compound, the TGI in experiment [4], in experiment [6], in experiment [15] and in [9] was more than 100 µM each time.
In the case of `CCN(CC)CC(C)(C)C(=O)/C=C/c1ccc(C)cc1`, the TGI in experiment [1] is 42.7 µM; in [10], 32.4 µM; in experiment [14], 13.3 µM; in experiment [11], 20.1 µM; in [12], 79.6 µM; in experiment [4], 21.7 µM. Moreover, the TGI in [6] was determined as 22.1 µM; in experiment [7], 23.5 µM; in [15] it was 26.3 µM; in [8], 26.8 µM; in experiment [9], 27.9 µM.
As for `Nc1nc(=O)n(C2OC(CO)C(O)C2O)cc1F` (stereo not given), the TGI was more than 100 µM in experiment [1]; more than 100 µM in experiment [10]; 3.26 µM in [13]; more than 100 µM in experiment [16]; more than 100 µM in experiment [14]; more than 100 µM in [12]. Besides, the TGI is more than 100 µM in experiment [4], more than 100 µM in experiment [6], more than 56.4 µM in experiment [7] and more than 100 µM in experiment [15].
For the compound `Cc1ccc(C2SC(N)=Nc3c2c(C)nn3C(=O)c2ccncc2)cc1` (stereo not given), the TGI in [1], in experiment [2], in experiment [3], in [4], in [5] and in experiment [6] was more than 10 µM throughout. Further, the TGI in experiment [7], in [8] and in experiment [9] was more than 10 µM in each case.
For the compound `CNC(=O)N(CCC#N)CCN(CCN(C(=O)NC)c1ccccc1)C(=O)NC`, the TGI in [1], in experiment [2], in experiment [3], in experiment [4], in [5] and in [7] was more than 100 µM each time. Further, the TGI in [8] and in [9] was more than 100 µM each time.
For `CC(=O)OCCn1c(Cc2ccc([N+](=O)[O-])cc2)nn(C(C)=O)c1=O`, the TGI in experiment [1], in experiment [2], in experiment [3], in experiment [4], in [5] and in experiment [6] was more than 100 µM throughout. Moreover, the TGI in experiment [8] and in experiment [9] was more than 100 µM throughout.
With `CN1c2ccccc2C2c3c(O)ccc(O)c3C=C([N+](=O)[O-])C21` (stereo not given), the TGI in [1] is 3.57 µM; in [2], 13.6 µM; in experiment [3], 1.5 µM; in [5], 4.79 µM; in experiment [6], 6.54 µM; in experiment [7], more than 24.2 µM. For the same compound, the TGI is more than 24.8 µM in experiment [8] and 23.3 µM in experiment [9].
Regarding `C=CCSc1nn(CC=C)cc2ncnc1-2`, the TGI in [1], in experiment [2], in experiment [3], in experiment [4], in experiment [5] and in experiment [6] was more than 100 µM in each case. For the same compound, the TGI in experiment [7], in [8] and in experiment [9] was more than 100 µM throughout.
Consider `COC(CNC(=O)C(C)NC(=O)C(C)NC(=O)c1ccccc1)OC` (stereo not given), for which the TGI in [1], in experiment [2], in [3], in experiment [5], in experiment [6] and in experiment [7] was more than 100 µM in each case. For the same compound, the TGI in [8] and in experiment [9] was more than 100 µM in each case.
